Test results reported in ChEMBL document CHEMBL3507680, “University of Dundee, Gates Library screen for HepG2 cell viability”.

Test: Human HepG2 cell viability assay in 384 well format
Assay type: toxicity, cell-based
Parameters: dose 125 nL, time 70.5 hour; concentration not given beside the values
Conditions: HepG2 cells, read-out: Inhibition
Compound O=C(c1cc(-c2ccn(CC3CC3)n2)n2ccccc12)N1CCCO1 has a cytotoxicity at 70.5 h of -3.08%.
Cc1nn(C2CCS(=O)(=O)C2)c(O)c1Cc1ccc(Br)cc1 (stereo not given) showed a cytotoxicity at 70.5 h of 19.3%.
With CS(=O)(=O)N1Cc2ccccc2CC2(CCN(Cc3ccccc3)C2)C1 (stereo not given) the cytotoxicity at 70.5 h was -9.03%.
Work on CC(C)N1CCC(c2n[nH]cc2S(C)(=O)=O)CC1 yielded a cytotoxicity at 70.5 h of -10.2%.
Compound COc1ccc(S(=O)(=O)N2CCc3ccc(F)cc32)cc1C(=O)O has a cytotoxicity at 70.5 h of 1.61%.
In the case of CCN1CC(NC(=O)Nc2nc(C)n(C(C)C)n2)CC1=O (stereo not given), the cytotoxicity at 70.5 h is reported as 9.96%.
Cc1ccc(N2CCC(C(=O)O)(n3ccc(C(C)C)n3)CC2)nn1 showed a cytotoxicity at 70.5 h of -1.26%.
In the case of c1ccc(Cc2noc(CNC3CCc4ncnn4C3)n2)cc1 (stereo not given), the cytotoxicity at 70.5 h is reported as -5.32%.
With CCN1CCC(NC(=O)NCC(O)c2ccc(Cl)c(F)c2)CC1 (stereo not given) the cytotoxicity at 70.5 h was 6.86%.
Compound CCNC(=O)[C@@H]1C[C@@H](n2cc(CN(CC)CC)nn2)CN1 has a cytotoxicity at 70.5 h of -13.5%.
With c1cn2c(n1)CO[C@@H](CNCc1ccc3c(c1)OCO3)C2 the cytotoxicity at 70.5 h was -4.1%.
For Cc1nc(-c2ccnn2C)cc(C2CCCN(S(C)(=O)=O)C2)n1 (stereo not given), the cytotoxicity at 70.5 h was -6.24%.
In the case of CC(=O)c1cccc(NC(=O)NCCOCC2CC2)c1, the cytotoxicity at 70.5 h is reported as -6.67%.
Work on Cc1ccc(S(=O)(=O)N2C[C@H]3C[C@H](NC(=O)c4ccn(C)n4)[C@H]3C2)cc1 yielded a cytotoxicity at 70.5 h of 1.44%.
N#Cc1ccc(OC2CCN(CC(=O)NCC(F)(F)F)CC2)cc1 gave a cytotoxicity at 70.5 h of -12.8%.
For CN(CC(=O)N(CCC#N)c1ccccc1)C1CCc2ccccc21 (stereo not given), the cytotoxicity at 70.5 h was 5.13%.
COc1cc(C(=O)NCC2CCCO2)nc2c(C)cc(F)cc12 (stereo not given) gave a cytotoxicity at 70.5 h of -25.4%.
CC1(C(=O)N2CCN(c3ncccn3)CC2)CNCCO1 (stereo not given) gave a cytotoxicity at 70.5 h of -8.07%.
Compound Cn1nc(C(=O)N2CCC(Oc3ccc(C#N)cn3)CC2)ccc1=O has a cytotoxicity at 70.5 h of -11%.
In the case of O=C(C1CC1)N1C[C@@H](F)[C@@H](OCc2nc3ccccc3[nH]2)C1, the cytotoxicity at 70.5 h is reported as 4.35%.
Work on COCCN1Cc2nccn2CC(COCc2csc(C)n2)C1 (stereo not given) yielded a cytotoxicity at 70.5 h of -1.7%.
For O=C(c1cscn1)N1CCC2(CCCN(CCOc3ccccc3)C2)C1 (stereo not given), the cytotoxicity at 70.5 h was -19.6%.
In the case of Cc1ccc([C@@H]2CN(C(=O)c3ccon3)C[C@H]2NC(=O)C2CC2)cc1, the cytotoxicity at 70.5 h is reported as -0.162%.
CCSc1cc(C(=O)NCC(C)(C)N(C)C)ccn1 showed a cytotoxicity at 70.5 h of -90.6%.
For CCc1nc(C2CCCN2c2ncc(C(N)=O)cc2Cl)no1 (stereo not given), the cytotoxicity at 70.5 h was 3.61%.
Work on CCC1c2ccsc2CCN1C(=O)NCc1cccnc1OC (stereo not given) yielded a cytotoxicity at 70.5 h of -11.2%.
In the case of OCc1ccc(N2CCN(c3ncccn3)CC2)c(F)c1, the cytotoxicity at 70.5 h is reported as -5.65%.
Cc1ccc(CN(Cc2nc3c(cnn3C)c(=O)[nH]2)C2CC2)o1 gave a cytotoxicity at 70.5 h of -5.9%.
CS(=O)(=O)NCC1(O)CCCN(C(=O)CCn2cc(Cl)cn2)CC1 (stereo not given) showed a cytotoxicity at 70.5 h of -1.38%.
CNc1nc(C2CCCN(C(=O)C(C)C)C2)nc2c1CN(C)CC2 (stereo not given) gave a cytotoxicity at 70.5 h of 9.57%.
For CC1CCCN(C(=O)Nc2ccc(F)c(C(N)=O)c2)C1 (stereo not given), the cytotoxicity at 70.5 h was -1.11%.
Work on CN(CCC1CCCCO1)c1nncc(-c2ccccc2)n1 (stereo not given) yielded a cytotoxicity at 70.5 h of -0.965%.
Work on Cc1ccc(CCNc2ncnc3sc4c(c23)CCNC4)o1 yielded a cytotoxicity at 70.5 h of -8.67%.
O=C(CCNS(=O)(=O)c1ccccc1)N1CCOC(c2ccccc2)C1 (stereo not given) showed a cytotoxicity at 70.5 h of -18%.
With Cc1nnc([C@]23COC[C@H]2CN(Cc2nccs2)C3)o1 the cytotoxicity at 70.5 h was -10.3%.
O=C(O)[C@@H]1CN(CC2CCC2)C[C@H]1c1ccc(F)cc1 gave a cytotoxicity at 70.5 h of -7.16%.
Compound O=C1N(c2ccsc2)CCC12CCCN(Cc1ccccn1)C2 (stereo not given) has a cytotoxicity at 70.5 h of -4.36%.
Compound Cc1cc(F)c(S(=O)(=O)N(C)CCn2cccn2)cc1F has a cytotoxicity at 70.5 h of -9.11%.
Work on Cc1ccc(N(C)[C@@H]2CC[C@@H]3CN(C(=O)Cc4cccs4)C[C@@H]32)nn1 yielded a cytotoxicity at 70.5 h of -5.34%.
For Cn1cc(S(=O)(=O)NCCc2nnc3ccccn23)cn1, the cytotoxicity at 70.5 h was -4.25%.
Work on CC1(c2ncc(CN3CCN(c4ncccn4)CC3)cn2)CCCCO1 (stereo not given) yielded a cytotoxicity at 70.5 h of -9.22%.
Work on CC(C)Cn1cnc(S(=O)(=O)NCCc2nnc3ccccn23)c1 yielded a cytotoxicity at 70.5 h of 15.7%.
Work on CCc1nnc2n1CCN(CC(O)c1ccc3c(c1)OCCO3)C2 (stereo not given) yielded a cytotoxicity at 70.5 h of 23.6%.
Compound O=c1c2cnc(N3CCCC3)nc2ccn1-c1cccc(C(F)(F)F)c1 has a cytotoxicity at 70.5 h of -5.84%.
For CC(=O)N1CCN(C(=O)C(C)Nc2ccc3ncsc3c2)CC1 (stereo not given), the cytotoxicity at 70.5 h was 0.285%.
Work on O=C1CC[C@@H](C(=O)N2CCc3[nH]nc(COc4cccc(Cl)c4)c3C2)N1 yielded a cytotoxicity at 70.5 h of -8.37%.
For O=C(CSC1CCc2ccccc2NC1=O)NCCc1ccc(O)cc1 (stereo not given), the cytotoxicity at 70.5 h was -2.27%.
CS(=O)(=O)NC1CCCN(C(=O)Nc2cccnc2N2CCCC2)C1 (stereo not given) showed a cytotoxicity at 70.5 h of 0.921%.
Compound COc1ccc(OCCNC(=O)c2ccc3c(=O)[nH][nH]c(=O)c3c2)cc1 has a cytotoxicity at 70.5 h of -0.259%.
With Cc1cccc(CN2CC3C[C@]3(NC(=O)c3ccoc3)C2)n1 (stereo not given in full) the cytotoxicity at 70.5 h was -12.4%.
In the case of CCOc1cc(CN(C)CCC#N)ccc1OC(F)F, the cytotoxicity at 70.5 h is reported as -5.38%.
For O=C(CCc1ccccc1F)NS(=O)(=O)c1ccc2c(c1)OCCO2, the cytotoxicity at 70.5 h was 21.2%.
Work on Cc1cccc(-c2nnn3c2COC(CNCc2nccs2)C3)c1 (stereo not given) yielded a cytotoxicity at 70.5 h of -3.21%.
Compound Cc1ccccc1C(C(=O)NCCS(C)(=O)=O)N(C)C (stereo not given) has a cytotoxicity at 70.5 h of -14.5%.
Compound CN(C)C(=O)c1nn(C)c2c1CN(Cc1cccs1)C2 has a cytotoxicity at 70.5 h of -9.29%.
With CN(Cc1cn(C2CCNCC2)nn1)CC1CCCO1 (stereo not given) the cytotoxicity at 70.5 h was -9.31%.
CC(Oc1ccc2c(c1)OCO2)C(=O)Nc1ccon1 (stereo not given) showed a cytotoxicity at 70.5 h of -6.17%.
Compound O=C(NCc1nc(NC2CCCC2)c2cc(Cl)ccc2n1)c1cscn1 has a cytotoxicity at 70.5 h of -2.54%.
For CC(NC(=O)CCOc1cccc(F)c1)c1nnc2n1CCC2 (stereo not given), the cytotoxicity at 70.5 h was -2.58%.
With Cc1cnn(CCC(=O)N2CCN(C(=O)C(C)C)[C@@H]3CS(=O)(=O)C[C@@H]32)c1 the cytotoxicity at 70.5 h was -9.72%.
In the case of Cc1nsc(NCCNS(=O)(=O)c2cccc(Cl)c2)n1, the cytotoxicity at 70.5 h is reported as 9.23%.
COCCN1CCC(NC(=O)Cn2cc(C)c3ccccc32)CC1 showed a cytotoxicity at 70.5 h of 12.3%.
O=C1CC[C@H]2[C@@H](CCN2Cc2ccco2)N1 gave a cytotoxicity at 70.5 h of -8.59%.
Cc1ccc(-c2cn[nH]c2C2CCCN(c3ccnc(C)n3)C2)cc1 (stereo not given) showed a cytotoxicity at 70.5 h of -1.31%.
For Cc1cccc(-n2nc(CC(C)C)nc2[C@H](C)O)c1, the cytotoxicity at 70.5 h was 16.4%.
Compound COc1cccc(CN(C)Cc2[nH]c3ccccc3c2C)c1O has a cytotoxicity at 70.5 h of 1.38%.
With CNCc1cc(F)ccc1Oc1ccc(F)cc1F the cytotoxicity at 70.5 h was -0.802%.
Work on Cc1csc(C2(NCc3nc(-c4ccco4)oc3C)CCCC2)n1 yielded a cytotoxicity at 70.5 h of 22.8%.
With COc1cccc(-c2noc(C3CCN(Cc4ccccc4C)C3)n2)c1 (stereo not given) the cytotoxicity at 70.5 h was 13.9%.
For COc1ccc2c(c1)C(=O)N(C)C1(CCN(CC=C(C)C)CC1)N2, the cytotoxicity at 70.5 h was -2.27%.
CCOC(=O)c1cnn(C2CCN(C(=O)CC(C)(C)C)CC2)c1N showed a cytotoxicity at 70.5 h of 4.77%.
In the case of COc1c(C2CCCN2C(=O)c2ccc(N(C)C)nn2)c(C)nn1C (stereo not given), the cytotoxicity at 70.5 h is reported as -8.95%.
In the case of O=C(Nc1ccc(I)cc1C(=O)NCCN1CCOCC1)c1cccs1, the cytotoxicity at 70.5 h is reported as 11.1%.
With CC(c1ccccn1)N(C)C(=O)NCCn1c(=O)oc2ccccc21 (stereo not given) the cytotoxicity at 70.5 h was 6.82%.
With CNC(=O)[C@H]1C[C@@H]2CN(C(=O)NC(C)C)C[C@H]1O2 the cytotoxicity at 70.5 h was 23%.
With Cc1cnc2n(c1=O)C(CC(=O)NCc1ccccc1Cl)CS2 (stereo not given) the cytotoxicity at 70.5 h was 35%.
With COc1cc(NC(=O)c2ccccc2F)c(C(=O)N(C)C)cc1OC the cytotoxicity at 70.5 h was -10.5%.
Cc1ccc(-c2cc(C(=O)NCCN3CCOCC3)n[nH]2)s1 gave a cytotoxicity at 70.5 h of -3.46%.
For CC(C)(N)CNS(=O)(=O)Cc1cccc2cccnc12, the cytotoxicity at 70.5 h was 1.51%.
Compound Cc1noc(C)c1CN(C)C(=O)NCCOc1ccc(F)cc1F has a cytotoxicity at 70.5 h of -6.66%.
